Experiment [1] concerns the target Protein-tyrosine kinase 6 (Homo sapiens) (UniProt Q13882).
Experiment [2] has as its target Calcium/calmodulin-dependent protein kinase kinase 2 (Homo sapiens) (UniProt Q96RR4).
For experiment [3], the target named is Cyclin-dependent kinase 11B (Homo sapiens) (UniProt P21127).
The target in experiment [4] is Cyclin-dependent kinase 13 (Homo sapiens) (UniProt Q14004).
In experiment [5] the target is T1, Serine/threonine-protein kinase Chk1 (Homo sapiens) (UniProt O14757).
T1 sequence (whole entry): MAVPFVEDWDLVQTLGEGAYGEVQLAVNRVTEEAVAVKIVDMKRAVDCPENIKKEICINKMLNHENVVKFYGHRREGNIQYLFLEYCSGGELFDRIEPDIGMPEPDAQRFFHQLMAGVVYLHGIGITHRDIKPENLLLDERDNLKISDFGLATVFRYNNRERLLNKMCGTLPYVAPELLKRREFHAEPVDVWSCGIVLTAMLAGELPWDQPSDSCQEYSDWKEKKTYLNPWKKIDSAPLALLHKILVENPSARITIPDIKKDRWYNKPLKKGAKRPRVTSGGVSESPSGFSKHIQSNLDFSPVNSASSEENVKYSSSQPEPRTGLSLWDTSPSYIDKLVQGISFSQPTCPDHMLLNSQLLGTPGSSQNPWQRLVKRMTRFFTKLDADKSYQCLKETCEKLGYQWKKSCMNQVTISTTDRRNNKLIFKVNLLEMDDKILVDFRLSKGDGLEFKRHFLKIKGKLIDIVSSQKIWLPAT

Experiment [6] deals with Dual specificity protein kinase CLK2 (Homo sapiens) (UniProt P49760).
Experiment [7] deals with Death-associated protein kinase 3 (Homo sapiens) (UniProt O43293).
Experiment [8] concerns Epidermal growth factor receptor (Homo sapiens), P00533 [UNDEFINED MUTATION].
Chain of Epidermal growth factor receptor (Homo sapiens), P00533 [UNDEFINED MUTATION] (P00533 whole entry, looked up, change not shown): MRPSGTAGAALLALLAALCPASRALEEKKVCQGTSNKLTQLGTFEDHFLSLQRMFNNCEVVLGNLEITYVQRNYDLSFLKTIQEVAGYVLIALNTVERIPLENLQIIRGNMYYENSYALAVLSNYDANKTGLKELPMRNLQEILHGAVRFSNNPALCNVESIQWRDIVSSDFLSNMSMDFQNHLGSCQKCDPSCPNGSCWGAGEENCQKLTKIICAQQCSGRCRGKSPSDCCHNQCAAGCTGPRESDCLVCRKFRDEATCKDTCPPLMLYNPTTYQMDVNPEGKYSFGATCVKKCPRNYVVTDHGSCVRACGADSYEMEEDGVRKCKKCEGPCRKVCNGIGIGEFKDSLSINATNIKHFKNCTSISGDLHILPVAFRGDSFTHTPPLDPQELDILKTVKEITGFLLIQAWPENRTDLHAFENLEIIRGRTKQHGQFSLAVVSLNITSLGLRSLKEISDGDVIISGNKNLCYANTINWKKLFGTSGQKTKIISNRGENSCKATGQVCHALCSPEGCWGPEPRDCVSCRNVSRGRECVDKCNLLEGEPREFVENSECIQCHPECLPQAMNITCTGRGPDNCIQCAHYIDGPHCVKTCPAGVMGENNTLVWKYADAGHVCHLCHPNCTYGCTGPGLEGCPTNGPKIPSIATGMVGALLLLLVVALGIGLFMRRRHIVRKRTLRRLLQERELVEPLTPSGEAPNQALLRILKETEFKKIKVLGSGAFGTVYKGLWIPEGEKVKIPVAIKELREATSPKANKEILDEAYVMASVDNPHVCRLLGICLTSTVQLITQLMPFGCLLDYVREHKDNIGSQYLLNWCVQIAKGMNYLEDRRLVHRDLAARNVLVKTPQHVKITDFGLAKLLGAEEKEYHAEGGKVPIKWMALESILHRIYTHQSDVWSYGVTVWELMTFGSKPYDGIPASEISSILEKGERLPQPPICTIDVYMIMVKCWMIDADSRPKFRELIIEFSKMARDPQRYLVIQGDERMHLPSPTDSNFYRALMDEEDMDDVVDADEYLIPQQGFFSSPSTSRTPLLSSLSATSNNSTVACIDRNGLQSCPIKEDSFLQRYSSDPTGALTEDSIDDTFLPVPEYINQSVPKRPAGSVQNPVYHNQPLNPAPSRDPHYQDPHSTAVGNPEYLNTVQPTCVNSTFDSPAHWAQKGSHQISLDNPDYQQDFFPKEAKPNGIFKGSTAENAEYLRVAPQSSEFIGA
In experiment [9] the target is Receptor tyrosine-protein kinase erbB-2 (Homo sapiens) (UniProt P04626).
Experiment [10] addresses Tyrosine-protein kinase Fes/Fps (Homo sapiens) (UniProt P07332).
Experiment [11] deals with Fibroblast growth factor receptor 1 (Homo sapiens) (UniProt P11362).
Chain of Fibroblast growth factor receptor 1 (Homo sapiens) (P11362 22-822 limits assumed): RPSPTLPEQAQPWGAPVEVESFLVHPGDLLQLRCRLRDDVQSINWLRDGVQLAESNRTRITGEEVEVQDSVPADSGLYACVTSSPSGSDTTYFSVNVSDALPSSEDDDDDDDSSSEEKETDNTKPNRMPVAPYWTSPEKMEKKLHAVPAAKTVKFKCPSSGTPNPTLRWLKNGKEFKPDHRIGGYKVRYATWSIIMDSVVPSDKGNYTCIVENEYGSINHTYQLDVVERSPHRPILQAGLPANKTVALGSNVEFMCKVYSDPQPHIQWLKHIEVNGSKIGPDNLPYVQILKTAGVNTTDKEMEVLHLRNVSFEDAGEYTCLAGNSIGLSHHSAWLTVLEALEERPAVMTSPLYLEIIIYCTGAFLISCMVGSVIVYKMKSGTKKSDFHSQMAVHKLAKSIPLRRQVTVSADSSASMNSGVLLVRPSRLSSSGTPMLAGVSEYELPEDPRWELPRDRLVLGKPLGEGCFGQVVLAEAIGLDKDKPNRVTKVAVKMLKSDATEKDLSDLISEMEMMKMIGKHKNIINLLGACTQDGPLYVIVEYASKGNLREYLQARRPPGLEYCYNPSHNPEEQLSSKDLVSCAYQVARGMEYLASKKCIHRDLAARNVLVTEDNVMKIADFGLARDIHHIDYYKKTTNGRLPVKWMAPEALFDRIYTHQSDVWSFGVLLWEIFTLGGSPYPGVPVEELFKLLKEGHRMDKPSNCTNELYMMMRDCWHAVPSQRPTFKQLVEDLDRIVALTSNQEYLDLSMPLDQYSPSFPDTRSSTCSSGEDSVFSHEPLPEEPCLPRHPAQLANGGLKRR
For experiment [12], the system named is Receptor-type tyrosine-protein kinase FLT3 (Homo sapiens), P36888 [N841I].
Experiment [13] has as its target Homeodomain-interacting protein kinase 3 (Homo sapiens) (UniProt Q9H422).
Experiment [14] deals with MAP/microtubule affinity-regulating kinase 3 (Homo sapiens) (UniProt P27448).
Experiment [15] concerns the target Dual specificity mitogen-activated protein kinase kinase 2 (Homo sapiens) (UniProt P36507).
Experiment [16] addresses Myosin light chain kinase 2, skeletal/cardiac muscle (Homo sapiens) (UniProt Q9H1R3).
The target of experiment [17] is Serine/threonine-protein kinase PAK 3 (Homo sapiens) (UniProt O75914).
Chain of Serine/threonine-protein kinase PAK 3 (Homo sapiens) (O75914 whole entry, looked up): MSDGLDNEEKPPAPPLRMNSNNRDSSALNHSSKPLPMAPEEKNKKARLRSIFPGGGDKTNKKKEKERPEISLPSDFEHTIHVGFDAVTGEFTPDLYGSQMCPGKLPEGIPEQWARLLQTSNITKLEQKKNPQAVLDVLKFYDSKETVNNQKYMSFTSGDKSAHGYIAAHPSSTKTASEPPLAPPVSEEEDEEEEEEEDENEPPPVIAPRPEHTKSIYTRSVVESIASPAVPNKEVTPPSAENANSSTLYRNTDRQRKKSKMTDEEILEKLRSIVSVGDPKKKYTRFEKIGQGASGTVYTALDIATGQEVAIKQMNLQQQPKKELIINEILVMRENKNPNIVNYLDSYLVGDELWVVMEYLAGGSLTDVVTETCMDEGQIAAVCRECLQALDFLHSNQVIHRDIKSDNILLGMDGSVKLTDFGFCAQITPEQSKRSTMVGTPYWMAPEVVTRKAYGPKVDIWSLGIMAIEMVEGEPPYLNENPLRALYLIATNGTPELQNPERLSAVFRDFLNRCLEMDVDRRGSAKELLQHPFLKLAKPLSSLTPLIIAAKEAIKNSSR
For experiment [18], the target named is 1-phosphatidylinositol 3-phosphate 5-kinase (Homo sapiens) (UniProt Q9Y2I7).
Experiment [19] addresses T2, Protein kinase C epsilon type (Homo sapiens) (UniProt Q02156).
T2 sequence (whole entry): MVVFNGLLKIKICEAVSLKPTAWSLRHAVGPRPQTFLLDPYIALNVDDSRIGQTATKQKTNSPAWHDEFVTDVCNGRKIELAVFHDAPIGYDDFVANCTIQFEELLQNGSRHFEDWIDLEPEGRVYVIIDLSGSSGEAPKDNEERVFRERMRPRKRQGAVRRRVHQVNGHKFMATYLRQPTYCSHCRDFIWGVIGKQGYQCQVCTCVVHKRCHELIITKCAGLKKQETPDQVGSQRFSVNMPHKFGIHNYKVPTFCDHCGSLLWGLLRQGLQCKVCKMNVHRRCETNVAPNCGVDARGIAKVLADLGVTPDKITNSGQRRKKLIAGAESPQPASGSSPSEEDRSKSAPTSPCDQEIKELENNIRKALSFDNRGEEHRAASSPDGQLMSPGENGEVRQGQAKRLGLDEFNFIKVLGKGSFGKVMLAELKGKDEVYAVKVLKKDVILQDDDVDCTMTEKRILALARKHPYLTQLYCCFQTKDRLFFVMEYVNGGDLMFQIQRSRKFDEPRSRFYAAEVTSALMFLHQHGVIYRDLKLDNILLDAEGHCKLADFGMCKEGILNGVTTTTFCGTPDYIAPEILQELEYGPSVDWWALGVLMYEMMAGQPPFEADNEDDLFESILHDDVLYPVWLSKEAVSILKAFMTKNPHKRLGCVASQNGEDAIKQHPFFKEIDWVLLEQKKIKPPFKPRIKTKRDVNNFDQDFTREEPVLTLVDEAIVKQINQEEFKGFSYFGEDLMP

The target in experiment [20] is RAF proto-oncogene serine/threonine-protein kinase (Homo sapiens) (UniProt P04049).
Experiment [21] deals with Ribosomal protein S6 kinase alpha-5 (Homo sapiens) (UniProt O75582).
In experiment [22] the target is Serine/threonine-protein kinase 33 (Homo sapiens) (UniProt Q9BYT3).
Chain of Serine/threonine-protein kinase 33 (Homo sapiens) (Q9BYT3 whole entry, looked up): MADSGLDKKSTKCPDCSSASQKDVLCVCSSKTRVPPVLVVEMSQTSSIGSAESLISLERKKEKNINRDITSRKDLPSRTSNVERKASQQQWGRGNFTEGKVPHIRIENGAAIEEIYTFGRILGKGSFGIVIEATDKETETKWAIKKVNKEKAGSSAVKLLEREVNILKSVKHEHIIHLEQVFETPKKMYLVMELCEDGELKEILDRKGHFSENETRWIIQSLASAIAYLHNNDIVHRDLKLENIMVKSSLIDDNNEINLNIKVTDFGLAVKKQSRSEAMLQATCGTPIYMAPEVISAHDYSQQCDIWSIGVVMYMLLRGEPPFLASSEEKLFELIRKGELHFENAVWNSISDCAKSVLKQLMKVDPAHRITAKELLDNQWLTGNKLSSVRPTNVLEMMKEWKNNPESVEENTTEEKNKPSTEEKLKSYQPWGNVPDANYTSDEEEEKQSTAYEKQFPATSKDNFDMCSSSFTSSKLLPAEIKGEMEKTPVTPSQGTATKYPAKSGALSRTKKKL
Experiment [23] concerns the target Kappa-type opioid receptor (Homo sapiens) (UniProt P41145). To be noted: Compound concentration 10.0 uM.
Experiment [24] deals with Beta-3 adrenergic receptor (Homo sapiens) (UniProt P13945). Particulars: Compound concentration 10.0 uM.
Chain of Beta-3 adrenergic receptor (Homo sapiens) (P13945 whole entry, looked up): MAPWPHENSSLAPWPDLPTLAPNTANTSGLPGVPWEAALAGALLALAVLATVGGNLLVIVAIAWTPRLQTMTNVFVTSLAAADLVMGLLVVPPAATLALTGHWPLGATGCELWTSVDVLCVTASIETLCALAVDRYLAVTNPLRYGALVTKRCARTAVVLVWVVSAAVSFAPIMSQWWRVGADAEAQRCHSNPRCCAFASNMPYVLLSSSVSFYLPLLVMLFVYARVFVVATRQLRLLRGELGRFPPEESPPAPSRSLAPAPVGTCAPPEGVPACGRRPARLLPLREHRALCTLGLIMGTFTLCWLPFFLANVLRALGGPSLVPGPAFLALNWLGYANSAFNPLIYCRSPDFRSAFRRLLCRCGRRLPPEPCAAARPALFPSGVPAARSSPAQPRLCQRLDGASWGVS
[25] abbreviates: Compound concentration 1000.0 nM.
[26] abbreviates: Compound concentration 100.0 nM.

Chain of Myosin light chain kinase 2, skeletal/cardiac muscle (Homo sapiens) (Q9H1R3 whole entry): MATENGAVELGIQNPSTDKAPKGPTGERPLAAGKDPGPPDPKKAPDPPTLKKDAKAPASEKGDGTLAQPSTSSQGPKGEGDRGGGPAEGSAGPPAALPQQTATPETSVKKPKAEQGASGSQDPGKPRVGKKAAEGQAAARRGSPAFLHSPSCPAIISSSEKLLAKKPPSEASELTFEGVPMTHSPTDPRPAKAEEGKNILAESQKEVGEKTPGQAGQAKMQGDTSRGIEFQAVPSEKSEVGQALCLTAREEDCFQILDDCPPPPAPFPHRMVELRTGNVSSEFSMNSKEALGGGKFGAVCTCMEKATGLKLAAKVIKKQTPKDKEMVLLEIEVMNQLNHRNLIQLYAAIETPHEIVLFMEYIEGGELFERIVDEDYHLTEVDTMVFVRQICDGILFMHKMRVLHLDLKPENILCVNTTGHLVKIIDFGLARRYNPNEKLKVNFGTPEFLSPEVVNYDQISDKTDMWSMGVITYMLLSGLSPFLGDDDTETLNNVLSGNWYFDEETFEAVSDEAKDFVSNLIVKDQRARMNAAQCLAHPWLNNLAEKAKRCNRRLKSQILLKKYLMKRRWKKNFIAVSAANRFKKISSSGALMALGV
Chain of Protein-tyrosine kinase 6 (Homo sapiens) (Q13882 whole entry, looked up): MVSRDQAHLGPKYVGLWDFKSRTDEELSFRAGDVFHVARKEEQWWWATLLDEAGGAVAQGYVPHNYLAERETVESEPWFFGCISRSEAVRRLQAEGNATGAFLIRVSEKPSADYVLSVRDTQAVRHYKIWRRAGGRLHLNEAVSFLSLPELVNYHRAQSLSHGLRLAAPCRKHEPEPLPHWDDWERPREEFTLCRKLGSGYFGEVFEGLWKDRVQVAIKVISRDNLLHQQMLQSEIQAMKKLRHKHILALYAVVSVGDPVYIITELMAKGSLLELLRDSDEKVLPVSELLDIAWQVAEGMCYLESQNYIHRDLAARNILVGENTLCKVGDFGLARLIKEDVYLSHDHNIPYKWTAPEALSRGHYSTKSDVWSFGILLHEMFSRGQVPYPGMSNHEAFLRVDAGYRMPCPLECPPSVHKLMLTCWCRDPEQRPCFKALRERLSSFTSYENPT
Chain of Kappa-type opioid receptor (Homo sapiens) (P41145 whole entry): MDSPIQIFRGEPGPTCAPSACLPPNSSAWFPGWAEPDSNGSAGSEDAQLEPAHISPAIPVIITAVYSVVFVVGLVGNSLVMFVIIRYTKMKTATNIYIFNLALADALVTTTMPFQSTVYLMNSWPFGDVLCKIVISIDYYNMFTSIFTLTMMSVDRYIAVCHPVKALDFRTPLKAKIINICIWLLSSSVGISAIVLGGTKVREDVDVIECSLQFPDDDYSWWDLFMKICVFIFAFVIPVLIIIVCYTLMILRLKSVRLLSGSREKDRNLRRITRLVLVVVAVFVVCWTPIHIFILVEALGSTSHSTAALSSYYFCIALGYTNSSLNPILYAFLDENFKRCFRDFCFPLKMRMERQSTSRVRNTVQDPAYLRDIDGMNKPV

The inhibition is the relative decrease from the control value, in per cent. As to `C[C@@H]1CN(c2cc(-c3nn(C)c4ccc(OC5(C)CC5)cc34)ncn2)C[C@H](C)O1` [MLi-2-NC], the residual activity in [1] (setting [25]) is 92%; in experiment [2] (setting [25]) it was 85%; in experiment [3] (setting [25]), 88%; in [4] (setting [25]) it was 86%; in [5] (setting [25]), 57%; in experiment [6] (setting [25]), 81%. Moreover, the residual activity in [7] (setting [25]) was 89%; in experiment [8] (setting [25]), 74%; in experiment [9] (setting [25]), 80%; in [10] (setting [25]) it was 93%; in [11] (setting [25]), 100%; in experiment [12] (setting [25]) it was 85%. In addition, the residual activity is 91% in [13] (setting [25]); 100% in experiment [14] (setting [25]); 73% in experiment [15] (setting [25]); 87% in experiment [16] (setting [25]); 100% in [17] (setting [25]); 78% in experiment [18] (setting [25]). Also, the residual activity is 100% in [19] (setting [25]), 100% in experiment [20] (setting [25]), 100% in experiment [21] (setting [25]) and 86% in experiment [22] (setting [25]). In addition, the inhibition in experiment [23] is 13.1%; in experiment [24], 11.8%.

For `C[C@@H]1CN(c2cc(-c3n[nH]c4ccc(OC5(C)CC5)cc34)ncn2)C[C@H](C)O1` [MLi-2], the residual activity in [1] (setting [26]) is 100%; in experiment [2] (setting [26]), 100%; in experiment [3] (setting [26]), 88%; in [4] (setting [26]), 84%; in experiment [5] (setting [26]), 90%; in experiment [6] (setting [26]), 85%. The residual activity was 96% in experiment [7] (setting [26]); 43% in experiment [8] (setting [26]); 77% in experiment [9] (setting [26]); 87% in experiment [10] (setting [26]); 100% in experiment [11] (setting [26]); 46% in experiment [12] (setting [26]). Further, the residual activity in experiment [13] (setting [26]) was 73%; in experiment [14] (setting [26]), 73%; in experiment [15] (setting [26]), 85%; in experiment [16] (setting [26]), 91%; in experiment [17] (setting [26]) it was 83%; in experiment [18] (setting [26]) it was 90%. Further, the residual activity in experiment [19] (setting [26]) is 95%; in experiment [20] (setting [26]) it was 100%; in experiment [21] (setting [26]), 97%; in experiment [22] (setting [26]), 86%. For the same molecule, the values for the inhibition in experiment [23] and in experiment [24] were -0.6% and -5.99%, respectively.

For the origin of these results see ChEMBL document CHEMBL4507291 (2021).
